Data as given in US11414379B2, “SPAK kinase inhibitors as neuroprotective agents” (United States Government as represented by the Department …, priority 2018, dated 2022).

Legend:
NKCC1 pThr203 = test: Phosphorylation immunoblot in KCC2-transfected HEK293 cells; type: cell-based, human; set-up: key to NKCC1 pThr203 (μM) Iso / NKCC1 pThr203 (μM) hypo: “—” showed no inhibition of phosphorylation of SPAK/NKCC1/KC22; conditions: concentration inhibiting phosphorylation; for NKCC1 pThr203 (μM) hypo: hypotonic low Cl- conditions; for NKCC1 pThr203 (μM) Iso: isotonic conditions
Method: (§1) HEK293 (human embryonic kidney 293) cells were cultured on 10-cm-diameter dishes in DMEM supplemented with 10% (v/v) foetal bovine serum, 2 mM L-glutamine, 100 U/ml penicillin and 0.1 mg/ml streptomycin. HEK293 cells were transfected with a mixture of 20 μl of 1 mg/ml polyethylenimine (Polysciences) and 5-10 μg of plasmid DNA as described previously (Durocher et al., 2002). 36 hours post-transfection cells were stimulated with either control isotonic or hypotonic medium for a period of 30 minutes. Cells were lysed in 0.3 mL of ice-cold lysis buffer/dish, lysates were clarified by centrifugation at 4° C. for 15 minutes at 26,000 g and the supernatant aliquots were frozen in liquid nitrogen and stored at −20° C. Protein concentrations were determined using the Bradford method. Cells were treated with the indicated concentrations of the SPAK/OSR1 inhibitors. […] Hypotonic low chloride buffer was 67.5 mM sodium-gluconate, 2.5 mM potassium-gluconate, 0.25 mM CaCl2), 0.25 mM MgCl2, 0.5 mM Na2HPO4, 0.5 mM Na2SO4 and 7.5 mM HEPES (pH 7.5).
(§2) The membranes were incubated for 30 min with TBST (Tris-buffered saline, 0.05% Tween-20) containing 5% (w/v) skim milk. The blots were then washed six times with TBST and incubated for 1 hour at room temperature with secondary HRP-conjugated antibodies diluted 5000-fold in 5% (w/v) skim milk in TBST. After repeating the washing steps, signals were detected with enhanced chemiluminescence reagent. Immunoblots were developed using a film automatic processor (SRX-101; Konica Minolta Medical) and films were scanned at 600 dpi (PowerLook 1000; UMAX). Figures were generated using Photoshop/Illustrator (Adobe). The densities of bands were measured with ImageJ. For phospho-antibody immunoprecipitation, KCC isoforms were immunoprecipitated from indicated cell extracts. 2 mg of the indicated clarified cell extract were mixed with 15 μg of the indicated phospho-specific KCC antibody conjugated to 15 μl of protein-G-Sepharose, in the added presence of […] of the dephosphorylated form of the phosphopeptide antigen, and incubated 2 hours at 4° C. with gentle shaking. Immunoprecipitates were washed three times with 1 mL of lysis buffer containing 0.15 M NaCl and twice with 1 ml of buffer A. Bound proteins were eluted with 1×LDS sample buffer.
(§3) HEK293 cells were transfected with a DNA construct encoding wild type N-terminally FLAG-tagged KCC2. 36 hrs post-transfection, cells were exposed 30 min to either control isotonic or hypotonic low [C1^−] conditions, then treated in the same conditions for an additional 30 min with the indicated inhibitors at the concentrations noted. Cell lysates were subjected to SDS-PAGE and Western blotting with the indicated antibodies. See FIG. 3 for Western blot quantitation.
(§4) Referring to FIG. 2, concentration-response experiments testing effects of Closantel analogs on phosphorylation of KCC2 Thr906/Thr1007 are shown. HEK293 cells were transfected with DNA construct encoding wild type N-terminally FLAG-tagged KCC2. 36 h post-transfection, cells were exposed 30 min to either control isotonic conditions or hypotonic low Cl^− conditions, then treated in the same conditions with the specified inhibitors (1b, 1c, 1f, 1d, 1h, and 1g, respectively) at the indicated concentrations for an additional 30 min. Lysates were subjected to SDS-PAGE and Western blotting with the indicated antibodies.
(§5) Referring to FIG. 3, HEK293 cells were transfected with the DNA construct encoding wild type N-terminally FLAG-tagged KCC2. 36 h post-transfection, cells were exposed 30 min to either control isotonic or hypotonic low Cl^− conditions, then treated in the same conditions with the specified inhibitors at the indicated concen-trations for an additional 30 min. Lysates were subjected to SDS-PAGE and Western blotting with the indicated antibodies. Closantel, STOCK1S-14279 and STOCK1S-50699 were used as reference compounds.

KCC2 pThr906 = test: as above; type: cell-based, human; set-up: key: “—” showed no inhibition of phosphorylation of SPAK/NKCC1/KC22; conditions: concentration inhibiting phosphorylation; for KCC2 pThr906 (μM) hypo: hypotonic low Cl- conditions; for KCC2 pThr906 (μM) Iso: isotonic conditions
Method: as §1, §2, §3, §4, §5

KCC2 pThr1007 = test: as above; type: cell-based, human; set-up: key: “—” showed no inhibition of phosphorylation of SPAK/NKCC1/KC22; conditions: concentration inhibiting phosphorylation; for KCC2 pThr1007 (μM) hypo: hypotonic low Cl- conditions; for KCC2 pThr1007 (μM) Iso: isotonic conditions
Method: as §1, §2, §3, §4, §5

SPAK pSer373 = test: as above; type: cell-based, human; set-up: key: “—” showed no inhibition of phosphorylation of SPAK/NKCC1/KC22; conditions: concentration inhibiting phosphorylation; for SPAK pSer373 (μM) hypo: hypotonic low Cl- conditions; for SPAK pSer373 (μM) Iso: isotonic conditions
Method: as §1, §2, §3, §4, §5

GST-[T233E]SPAK kinase = target: T1, GST-[T233E]SPAK kinase (Homo sapiens, UniProt Q9UEW8, T231E); test: SPAK kinase assay employing CATCHtide; type: biochemical; conditions: SPAK activity at different ATP concentrations
T1 construct: made in house; host or cells: E. coli
Method: SPAK kinase assays employing CATCHtide (cation chloride co-transporter peptide substrate). Peptide kinase assays, performed in triplicate, were set up in a total volume of 50 μl containing 0.5 μg GST-[T233E]SPAK kinase (˜5 nM at ˜10% purity) in 50 mM Tris/HCl, pH 7.5, 0.1 mM EGTA, 10 mM MgCl2, 300 μM CATCHtide ([…]; SEQ ID NO:1), […] [γ-32P]ATP (˜500 cpm/pmol) and the indicated concentrations of inhibitor dissolved in DMSO. After incubation for 30 min at 30° C., reactions were terminated by spotting 40 μl of the reaction mix onto P81 phosphocellulose paper and immersion in 50 mM phosphoric acid. The papers were washed extensively and the incorporation of [γ-^32P]ATP into CATCHtide was quantified by Cerenkov counting. IC^50 values were calculated with GraphPad Prism using non-linear regression analysis.
Referring to FIG. 7A, the activation of SPAK kinase by MO25α is shown. SPAK was assayed in the absence or presence of five-fold molar excess of wild-type MO25α.
Referring to FIG. 7B, kinetic data was determined for ZT-1a in the absence or presence of five-fold molar excess of wild-type MO25α. Data points are the average of three determinations, and the error bars are +/−SEM.

Structure (SMILES)	NKCC1 pThr203 (μM) hypo (NKCC1 pThr203)	NKCC1 pThr203 (μM) Iso (NKCC1 pThr203)	KCC2 pThr906 (μM) hypo (KCC2 pThr906)	KCC2 pThr906 (μM) Iso (KCC2 pThr906)	KCC2 pThr1007 (μM) hypo (KCC2 pThr1007)	KCC2 pThr1007 (μM) Iso (KCC2 pThr1007)	SPAK pSer373 (μM) hypo (SPAK pSer373)	SPAK pSer373 (μM) Iso (SPAK pSer373)	change of IC50 values with increasing ATP concentrations (GST-[T233E]SPAK kinase)
Cc1cc(C(C#N)c2ccc(Cl)cc2)c(Cl)cc1NC(=O)c1ccccc1O (stereo not shown) [Compound 1b, N-(5-chloro-4-((4-chlorophenyl)(cyano)methyl)-2-methylphenyl)-2-hydroxy-benzamide]	1 μM	3 μM	10, 10 μM	10, 10 μM	3, 3 μM	3, 3 μM	3, 3 μM	3, 3 μM	
Cc1cc(C(C#N)c2ccc(Cl)cc2)c(Cl)cc1NC(=O)c1ccccc1S (stereo not shown) [Compound 1c, N-(5-chloro-4-((4-chlorophenyl)(cyano)methyl)-2-methylphenyl)-2-mercapto-benzamide]	3 μM	1 μM	10, 10 μM	10, 10 μM	3, 3 μM	3, 3 μM	3, 3 μM	3, 3 μM	
Cc1cc(C(C#N)c2ccc(Cl)cc2)c(Cl)cc1NC(=O)c1ccccc1N (stereo not shown) [Compound 1d, 2-amino-n-(5-chloro-4-((4-chlorophenyl)(cyano)methyl)-2-methylphenyl)-benzamide]	3 μM	1 μM	10, 10 μM	10, 10 μM	3, 3 μM	3, 3 μM	3, 3 μM	3, 3 μM	
Cc1cc(C(C#N)c2ccc(Cl)cc2)c(Cl)cc1NC(=O)c1ccccc1[N+](=O)[O-] (stereo not shown) [Compound 1e, N-(5-chloro-4-((4-chlorophenyl)(cyano)methyl)-2-methylphenyl)-2-nitrobenzamide]	—	—	—	—	—	—	—	—	
Cc1cc(C(C#N)c2ccc(Cl)cc2)c(Cl)cc1NC(=O)c1cc(Cl)cc(Cl)c1O (stereo not shown) [Compound 1f, 3,5-dichloro-n-(5-chloro-4-((4-chlorophenyl)(cyano)methyl)-2-methylphenyl)-2-hydroxy-benzamide]	3 μM	1 μM	10, 10 μM	10, 10 μM	3, 3 μM	3, 3 μM	3, 3 μM	3, 3 μM	
Cc1cc(C(C#N)c2ccc(Cl)cc2)c(Cl)cc1NC(=O)c1cc(F)ccc1O (stereo not shown) [Compound 1g]	3 μM	1 μM	10, 10 μM	10, 10 μM	3, 3 μM	3, 3 μM	3, 3 μM	3, 3 μM	
Cc1cc(C(C#N)c2ccc(Cl)cc2)c(Cl)cc1NC(=O)c1cccc(F)c1O (stereo not shown) [Compound 1h, N-(5-chloro-4-((4-chlorophenyl)(cyano)methyl)-2-methylphenyl)-3-fluoro-2-hydroxy-benzamide]	3 μM	1 μM	10, 10 μM	10, 10 μM	3, 3 μM	3, 3 μM	3, 3 μM	3, 3 μM	
Cc1cc(C(C#N)c2ccc(Cl)cc2)c(Cl)cc1NC(=O)c1cccc(O)c1O (stereo not shown) [Compound 1i, N-(5-chloro-4-((4-chlorophenyl)(cyano)methyl)-2-methylphenyl)-2,3-dihydroxy-benzamide]	—	—	—	—	—	—	—	—	
COc1ccc(Cl)cc1C(=O)Nc1cc(Cl)c(C(C#N)c2ccc(Cl)cc2)cc1C (stereo not shown) [Compound 1j]	—	—	—	—	—	—	—	—	
CN[C@@H]1C[C@H]2O[C@@](C)([C@@H]1OC)n1c3ccccc3c3c4c(c5c6ccccc6n2c5c31)C(=O)NC4 [staurosporine, reference compound]									increased in a dose-proportional manner
